Test results: PMC10439952, “JT002, a small molecule inhibitor of the NLRP3 inflammasome for the treatment of autoinflammatory disorders” (Scientific Reports, 2023)

What was measured:
[1] = parameters: method as in PMID 26206150; settings: daily dose of 1200 mg; development terminated; cited from earlier work
[2] = test system: autocatalytic cleavage of pro-caspase-1 (p45) into the p10 subunit; experiment: Western blot for caspase-1 p10 in LPS + nigericin stimulated mouse BMDM lysates and supernatants; type: cell-based; settings: LPS + nigericin treated mBMDMs, compound 10 µM
Procedure: BMDMs were activated with LPS and nigericin as described above and were lysed in situ with 50 μL of 4× NuPAGE LDS sample buffer (Fisher Scientific, Hampton, NH) + 5% β-mercaptoethanol and prepared for polyacrylamide gel electrophoresis. Samples were run on NuPAGE Bis–Tris gels (Fisher Scientific, Hampton, NH) and transferred to polyvinylidene difluoride (PVDF) membranes (Fisher Scientific, Hampton, NH) using the iBlot® 2 Dry Blotting System (Fisher Scientific, Hampton, NH). Washed PVDF membranes were blocked and then probed with the following primary antibodies: procaspase-1 + p10 + p12 [EPR16883] (Abcam, Cambridge, MA), β-actin (AC-74, Sigma-Aldrich, St. Louis, MO) and NLRP3 [Cryo-2] (AdipoGen Life Sciences, San Diego, CA). Bound primary antibodies were detected using HRP-labeled secondary antibodies and membranes were imaged with an Azure c300 imager (Azure Biosystems, Dublin, CA). Bands were quantitated using ImageJ software.

[3] = test system: murine house dust mite model of severe corticosteroid-resistant asthma; parameters: method as in PMID 28528200; settings: i.p. administration; cited from earlier work

Row | Structure (SMILES) | liver safety in the clinic [1] | formation of the caspase-1 p10 subunit (autocatalytic cleavage of pro-caspase-1) [2] | bronchoalveolar lavage IL-1β concentrations [3] | bronchoalveolar lavage neutrophilia [3] | development of airway hyperresponsiveness [3] | p10 component in cell supernatants [2]
1 | CC(C)(O)c1coc(S(=O)(=O)NC(=O)Nc2c3c(cc4c2CCC4)CCC3)c1 [MCC950] | drug induced liver injury (DILI) detected | blocked formation of the p10 subunit and its release from the cell | reduced | reduced | completely prevented | 
2 | CCOC(=O)C1=CCCC[C@H]1S(=O)(=O)Nc1ccc(F)cc1Cl [TAK242, ethyl (6R)-6-[N-(2-Chloro-4-fluorophenyl)sulfamoyl]cyclohex-1-ene-1-carboxylate] |  | did not inhibit the autocatalytic cleavage of pro-caspase-1 into the p10 subunit |  |  |  | appearance of the p10 component in cell supernatants
3 | C[C@H](NC(=O)C(=O)Nc1ccccc1C(C)(C)C)C(=O)N[C@@H](CC(=O)O)C(=O)COc1c(F)c(F)cc(F)c1F [emricasan] |  | did not inhibit the autocatalytic cleavage of pro-caspase-1 into the p10 subunit |  |  |  | 
